“And” between values parts separate entries of the source, which are not always exact repeats. Identical values can stand only once.
Tested on: 855422-203-R-J1-PDC complex spheroid growth
Assay: Anticancer human tumor 855422-203-R-J1-PDC patient-derived bladder carcinoma cell line growth inhibition [AhR]
Details: for viability, T/C: stronger effect = lower value
Outline: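 Complex tumor spheroids co-cultured with HUVEC and human MSC stroma; AhR antagonists tested in combination with standard-of-care and investigational agents. Top concentration at or near clinical Cmax (else 10 microM), half-log dilutions; growth expressed as percent test/control.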

[1] = curve of first compound, second compound 0.1 µM
[2] = curve of first compound, second compound 0.316 µM
[3] = curve of first compound, second compound 1 µM
[4] = curve of first compound, second compound 3.16 µM
[5] = curve of first compound, second compound 10 µM
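Further: spheroids exposed to agents for seven days before readout.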
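Wherever viability, T/C is given: percent of DMSO vehicle control luminescence viability.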

With `CC(C)CC(NC(=O)C(Cc1ccccc1)NC(=O)c1cnccn1)B(O)O` (centres undefined) + Cc1ccccc1N=Nc1ccc(NC(=O)c2ccnn2C)c(C)c1 the IC50 [1] was 0.00594 µM, the IC50 [2] was 0.00586 µM and the IC50 [3] was 0.00566 µM. It also gave an IC50 [4] of 0.00519 µM, an IC50 [5] of 0.00416 µM and a viability, T/C (second compound 0.1 µM, first compound 0.000949 µM) of 108%. For the same molecule, the viability, T/C (second compound 0.1 µM, first compound 0.003 µM) was 135%, the viability, T/C (second compound 0.1 µM, first compound 0.00949 µM) was 0.86% and the viability, T/C (second compound 0.1 µM, first compound 0.03 µM) was 0.84%. For the same molecule, the viability, T/C (second compound 0.1 µM, first compound 0.0949 µM) was 1.35%, the viability, T/C (second compound 0.1 µM, first compound 0.3 µM) was 0.12% and the viability, T/C (second compound 0.316 µM, first compound 0.000949 µM) was 118%. For the same molecule, the viability, T/C (second compound 0.316 µM, first compound 0.003 µM) was 121%, the viability, T/C (second compound 0.316 µM, first compound 0.00949 µM) was 0.21% and the viability, T/C (second compound 0.316 µM, first compound 0.03 µM) was 0.02%. The viability, T/C (second compound 0.316 µM, first compound 0.0949 µM) was 0.02%, the viability, T/C (second compound 0.316 µM, first compound 0.3 µM) was 0.1% and the viability, T/C (second compound 1 µM, first compound 0.000949 µM) was 108%. The viability, T/C (second compound 1 µM, first compound 0.003 µM) was 115%, the viability, T/C (second compound 1 µM, first compound 0.00949 µM) was 0.18% and the viability, T/C (second compound 1 µM, first compound 0.03 µM) was 0.04%. The viability, T/C (second compound 1 µM, first compound 0.0949 µM) was 0.02%, the viability, T/C (second compound 1 µM, first compound 0.3 µM) was 0.11% and the viability, T/C (second compound 3.16 µM, first compound 0.000949 µM) was 100%. For the same molecule, the viability, T/C (second compound 3.16 µM, first compound 0.003 µM) was 94.6%, the viability, T/C (second compound 3.16 µM, first compound 0.00949 µM) was 0.91% and the viability, T/C (second compound 3.16 µM, first compound 0.03 µM) was 0.03%. For the same molecule, the viability, T/C (second compound 3.16 µM, first compound 0.0949 µM) was 0.09%, the viability, T/C (second compound 3.16 µM, first compound 0.3 µM) was 0.09% and the viability, T/C (second compound 10 µM, first compound 0.000949 µM) was 85%. For the same molecule, the viability, T/C (second compound 10 µM, first compound 0.003 µM) was 69.6%, the viability, T/C (second compound 10 µM, first compound 0.00949 µM) was 0.28% and the viability, T/C (second compound 10 µM, first compound 0.03 µM) was 0.11%. For the same molecule, the viability, T/C (second compound 10 µM, first compound 0.0949 µM) was 0.12% and the viability, T/C (second compound 10 µM, first compound 0.3 µM) was 0.16%.

With `CC1(C)CCC(CN2CCN(c3ccc(C(=O)NS(=O)(=O)c4ccc(NCC5CCOCC5)c([N+](=O)[O-])c4)c(Oc4cnc5[nH]ccc5c4)c3)CC2)=C(c2ccc(Cl)cc2)C1` the viability, T/C (compound 0.0316 µM) was 98.4% and 107% and 103%, the viability, T/C (compound 0.1 µM) was 95.8% and 106% and 98.7% and the viability, T/C (compound 0.316 µM) was 108% and 103% (2×). The viability, T/C (compound 1 µM) was 97.6% and 116% and 104%, the viability, T/C (compound 3.16 µM) was 108% and 118% and 100% and the viability, T/C (compound 10 µM) was 13.2% and 22.8% and 8.45%. The IC50 (curve of compound) was 6.19 µM and 6.99 µM and 5.93 µM.

Work on `NS(=O)(=O)OCC1CC(n2ccc3c(NC4CCc5ccccc54)ncnc32)CC1O` (centres undefined) + Cc1cncc(-c2nc(NCCc3c[nH]c4ccccc34)c3ncn(C(C)C)c3n2)c1 yielded an IC50 [1] of 0.86 µM, an IC50 [2] of 0.647 µM and an IC50 [3] of 0.499 µM. It also gave an IC50 [4] of 0.216 µM, an IC50 [5] of under 0.0316 µM and a viability, T/C (second compound 0.1 µM, first compound 0.0316 µM) of 114%. It also gave a viability, T/C (second compound 0.1 µM, first compound 0.1 µM) of 119%, a viability, T/C (second compound 0.1 µM, first compound 0.316 µM) of 78.2% and a viability, T/C (second compound 0.1 µM, first compound 1 µM) of 50.4%. The viability, T/C (second compound 0.1 µM, first compound 3.16 µM) was 12.8%, the viability, T/C (second compound 0.1 µM, first compound 10 µM) was 10.9% and the viability, T/C (second compound 0.316 µM, first compound 0.0316 µM) was 96.5%. The viability, T/C (second compound 0.316 µM, first compound 0.1 µM) was 113%, the viability, T/C (second compound 0.316 µM, first compound 0.316 µM) was 52.1% and the viability, T/C (second compound 0.316 µM, first compound 1 µM) was 50.9%. It also gave a viability, T/C (second compound 0.316 µM, first compound 3.16 µM) of 10.8%, a viability, T/C (second compound 0.316 µM, first compound 10 µM) of 9.91% and a viability, T/C (second compound 1 µM, first compound 0.0316 µM) of 98.3%. The viability, T/C (second compound 1 µM, first compound 0.1 µM) was 106%, the viability, T/C (second compound 1 µM, first compound 0.316 µM) was 50.7% and the viability, T/C (second compound 1 µM, first compound 1 µM) was 40.3%. For the same molecule, the viability, T/C (second compound 1 µM, first compound 3.16 µM) was 11.7%, the viability, T/C (second compound 1 µM, first compound 10 µM) was 9.3% and the viability, T/C (second compound 3.16 µM, first compound 0.0316 µM) was 80.2%. It also gave a viability, T/C (second compound 3.16 µM, first compound 0.1 µM) of 75.9%, a viability, T/C (second compound 3.16 µM, first compound 0.316 µM) of 37.1% and a viability, T/C (second compound 3.16 µM, first compound 1 µM) of 12.5%. It also gave a viability, T/C (second compound 3.16 µM, first compound 3.16 µM) of 8.33%, a viability, T/C (second compound 3.16 µM, first compound 10 µM) of 8.5% and a viability, T/C (second compound 10 µM, first compound 0.0316 µM) of 9.89%. For the same molecule, the viability, T/C (second compound 10 µM, first compound 0.1 µM) was 4.7%, the viability, T/C (second compound 10 µM, first compound 0.316 µM) was 3.03% and the viability, T/C (second compound 10 µM, first compound 1 µM) was 0.63%. For the same molecule, the viability, T/C (second compound 10 µM, first compound 3.16 µM) was 1.67% and the viability, T/C (second compound 10 µM, first compound 10 µM) was 1.45%.

With `O=C(c1cc(Cc2n[nH]c(=O)c3ccccc23)ccc1F)N1CCN(C(=O)C2CC2)CC1` the viability, T/C (compound 0.0316 µM) was 99% and 105% and 111%, the viability, T/C (compound 0.1 µM) was 112% and 105% and 129% and the viability, T/C (compound 0.316 µM) was 111% and 99% and 105%. For the same molecule, the viability, T/C (compound 1 µM) was 105% and 98.5% and 116%, the viability, T/C (compound 3.16 µM) was 114% and 103% and 106% and the viability, T/C (compound 10 µM) was 87.1% and 93.6% and 102%. The IC50 (curve of compound) was over 10 µM.

— PubChem BioAssay AID1919005 (Molecular Pharmacology Branch, DTP, NCI, 2023)
